In US20230373989A1, “N-PHENYLAMINOCARBONYL PYRIDINO-, PYRIMIDINO AND BENZO-TROPANES AS MODULATORS OF GPR65” (PATHIOS THERAPEUTICS LIMITED, priority 2020, published 2023) one finds IC50 data, which are given here for 29 molecules.

Like-named read-outs stand apart in the source and are kept apart here. A value given as a limit tells only on which side of the number the result lay.

The assay addresses T1, human recombinant GPR65 (Homo sapiens, UniProt Q8IYL9).
T1 construct: host or cells: 1321N1 human astrocytoma cells (1321N1-hrGPR65)
The assay can be described thus: Human GPR65 cAMP HTRF antagonist assay. It is filed as cell-based. A digest of the protocol:
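1321N1 astrocytoma cells stably expressing GPR65 were preincubated with compound for 30 min at room temperature in KRH pH 7.6 with 1 mM IBMX and 200 μM EDTA. They were then stimulated at assay pH 7.2 for 30 min, with controls at pH 7.9. cAMP was read by HTRF (665/620 nm), normalised to controls and fitted by 4-parameter logistic to give IC50.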

The mark [1] stands for this setting: 1321N1-hrGPR65 cells, assay pH 7.2, cAMP HTRF, read-out: hGPR65 IC50 (activity class).

T1 sequence (Q8IYL9 whole entry): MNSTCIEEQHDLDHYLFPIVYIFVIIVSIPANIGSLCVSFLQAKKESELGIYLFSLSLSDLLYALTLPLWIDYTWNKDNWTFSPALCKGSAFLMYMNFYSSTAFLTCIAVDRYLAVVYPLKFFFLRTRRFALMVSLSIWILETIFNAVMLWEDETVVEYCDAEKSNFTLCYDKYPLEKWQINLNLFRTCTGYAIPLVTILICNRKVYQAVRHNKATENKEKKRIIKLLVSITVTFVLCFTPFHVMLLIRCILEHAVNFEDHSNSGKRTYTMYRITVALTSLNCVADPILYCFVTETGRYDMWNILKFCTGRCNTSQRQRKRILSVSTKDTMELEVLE

The term IC50 denotes the concentration that gives 50% inhibition. Regarding `O=C(Nc1cc(C(F)(F)F)ccc1F)N1[C@H]2CC[C@@H]1c1ccnc(F)c1C2` [Compound 119, (5R,8S)-1-Fluoro-N-(2-fluoro-5-(trifluoromethyl)phenyl)-6,7,8,9-tetrahydro-5H-5,8-epiminocyclohepta[c]pyridine-10-carboxamide], the IC50 is < 500 nM.
Turning to `O=C(Nc1ccc(C(F)(F)F)cc1F)N1[C@H]2CC[C@@H]1c1ccnc(F)c1C2` [Compound 120, (5R,8S)-1-Fluoro-N-(2-fluoro-4-(trifluoromethyl)phenyl)-6,7,8,9-tetrahydro-5H-5,8-epiminocyclohepta[c]pyridine-10-carboxamide], the IC50 is < 500 nM.
For `COC(=O)c1ccc(NC(=O)N2[C@H]3CC[C@@H]2c2ccnc(F)c2C3)cc1Cl` [Compound 122, Methyl 2-chloro-4-((5R,8S)-1-fluoro-6,7,8,9-tetrahydro-5H-5,8-epiminocyclohepta[c]pyridine-10-carboxamido)benzoate], the IC50 was < 500 nM.
The same measure, in the same setting: next, `COC(=O)c1cc(NC(=O)N2[C@H]3CC[C@@H]2c2ccnc(F)c2C3)ccc1Cl` [Compound 123, Methyl 2-chloro-5-((5R,8S)-1-fluoro-6,7,8,9-tetrahydro-5H-5,8-epiminocyclohepta[c]pyridine-10-carboxamido)benzoate]: < 500 nM.
With `O=C(Nc1ccc(OC(F)(F)F)c(Cl)c1)N1[C@H]2CC[C@@H]1c1ccnc(F)c1C2` [Compound 124, (5R,8S)-N-(3-Chloro-4-(trifluoromethoxy)phenyl)-1-fluoro-6,7,8,9-tetrahydro-5H-5,8-epiminocyclohepta[c]pyridine-10-carboxamide], the IC50 is < 500 nM.
In the case of `COC(=O)c1cc(NC(=O)N2[C@H]3CC[C@@H]2c2ccnc(F)c2C3)c(F)cc1Cl` [Compound 125, Methyl 2-chloro-4-fluoro-5-((5R,8S)-1-fluoro-6,7,8,9-tetrahydro-5H-5,8-epiminocyclohepta[c]pyridine-10-carboxamido)benzoate], the half-maximal inhibitory concentration (IC50) is < 500 nM.
Same read-out and setting: the value for `O=C(Nc1cc(C(F)(F)F)c(Cl)cc1F)N1[C@H]2CC[C@@H]1c1ccnc(F)c1C2` [Compound 126, (5R,8S)-N-(4-Chloro-2-fluoro-5-(trifluoromethyl)phenyl)-1-fluoro-6,7,8,9-tetrahydro-5H-5,8-epiminocyclohepta[c]pyridine-10-carboxamide] was < 500 nM; that for `O=C(Nc1ccc(OC(F)F)c(Cl)c1)N1[C@H]2CC[C@@H]1c1c[nH]c(=O)cc1C2` [Compound 127, (6S,9R)-N-(3-Chloro-4-(difluoromethoxy)phenyl)-3-oxo-3,5,6,7,8,9-hexahydro-2H-6,9-epiminocyclohepta[c]pyridine-10-carboxamide] was < 500 nM.
For the molecule `O=C(Nc1ccc(OC(F)(F)F)c(Cl)c1)N1[C@H]2CC[C@@H]1c1c[nH]c(=O)cc1C2` [Compound 128, (6S,9R)-N-(3-Chloro-4-(trifluoromethoxy)phenyl)-3-oxo-3,5,6,7,8,9-hexahydro-2H-6,9-epiminocyclohepta[c]pyridine-10-carboxamide], the IC50 is < 500 nM.
In the case of `O=C(Nc1cc(C(F)(F)F)c(Cl)cc1F)N1[C@H]2CC[C@@H]1c1c[nH]c(=O)cc1C2` [Compound 129, (6S,9R)-N-(4-Chloro-2-fluoro-5-(trifluoromethyl)phenyl)-3-oxo-3,5,6,7,8,9-hexahydro-2H-6,9-epiminocyclohepta[c]pyridine-10-carboxamide], the IC50 was < 500 nM.
`COC(=O)c1ccc(NC(=O)N2[C@H]3CC[C@@H]2c2c[nH]c(=O)cc2C3)cc1Cl` [Compound 130, Methyl 2-chloro-4-((6S,9R)-3-oxo-3,5,6,7,8,9-hexahydro-2H-6,9-epiminocyclohepta[c]pyridine-10-carboxamido)benzoate]: the IC50 under setting [1] lay within 500 to 5000 nM.
Take `COC(=O)c1cc(NC(=O)N2[C@H]3CC[C@@H]2c2c[nH]c(=O)cc2C3)ccc1Cl` [Compound 131, Methyl 2-chloro-5-((6S,9R)-3-oxo-3,5,6,7,8,9-hexahydro-2H-6,9-epiminocyclohepta[c]pyridine-10-carboxamido)benzoate]: the IC50 under setting [1] is 500 to 5000 nM.
For `COC(=O)c1cc(NC(=O)N2[C@H]3CC[C@@H]2c2c[nH]c(=O)cc2C3)c(F)cc1Cl` [Compound 132, Methyl 2-chloro-4-fluoro-5-((6S,9R)-3-oxo-3,5,6,7,8,9-hexahydro-2H-6,9-epiminocyclohepta[c]pyridine-10-carboxamido)benzoate], the IC50 under setting [1] was 500 to 5000 nM.
As to `O=C(Nc1ccc(OC(F)F)c(Cl)c1)N1[C@H]2CC[C@@H]1c1ccnc(F)c1C2` [Compound 133, (5R,8S)—N-(3-Chloro-4-(difluoromethoxy)phenyl)-1-fluoro-6,7,8,9-tetrahydro-5H-5,8-epiminocyclohepta[c]pyridine-10-carboxamide], the IC50 was < 500 nM.
With `C[C@H]1c2cnccc2[C@H]2CC[C@@H]1N2C(=O)Nc1ccc(Cl)c(Cl)c1` [Compound 134, (5R,8S,9S)-N-(3,4-Dichlorophenyl)-9-methyl-6,7,8,9-tetrahydro-5H-5,8-epiminocyclohepta[c]pyridine-10-carboxamide], the IC50 was < 500 nM.
On the same count and under the same terms, the value for `O=C(Nc1ccc(Cl)c(Cl)c1)N1[C@@H]2CC[C@H]1[C@@H](F)c1cc(F)ncc12` [Compound 140, (5S,6S,9R)-N-(3,4-Dichlorophenyl)-3,5-difluoro-6,7,8,9-tetrahydro-5H-6,9-epiminocyclohepta[c]pyridine-10-carboxamide] was < 500 nM.
`O=C(Nc1cc(Cl)c(Br)cc1F)N1[C@H]2CC[C@@H]1c1c[nH]c(=O)cc1C2` [Compound 141, (6S,9R)-N-(4-Bromo-5-chloro-2-fluorophenyl)-3-oxo-3,5,6,7,8,9-hexahydro-2H-6.9-epiminocyclohepta[c]pyridine-10-carboxamide]: the half-inhibitory concentration (IC50) was < 500 nM.
For `O=C(Nc1cc(Br)c(Cl)cc1F)N1[C@H]2CC[C@@H]1c1c[nH]c(=O)cc1C2` [Compound 142, (6S,9R)-N-(5-Bromo-4-chloro-2-fluorophenyl)-3-oxo-3,5,6,7,8,9-hexahydro-2H-6,9-epiminocyclohepta[c]pyridine-10-carboxamide], the IC50 was < 500 nM.
Still for that read-out and setting: next, `O=C(Nc1ccc(Br)c(Cl)c1)N1[C@H]2CC[C@@H]1c1c[nH]c(=O)cc1C2` [Compound 143, (6S,9R)-N-(4-Bromo-3-chlorophenyl)-3-oxo-3,5,6,7,8,9-hexahydro-2H-6,9-epiminocyclohepta[c]pyridine-10-carboxamide]: < 500 nM.
Turning to `O=C(Nc1cc(Br)c(C(F)(F)F)cc1F)N1[C@H]2CC[C@@H]1c1c[nH]c(=O)cc1C2` [Compound 144, (6S,9R)-N-(5-Bromo-2-fluoro-4-(trifluoromethyl)phenyl)-3-oxo-3,5,6,7,8,9-hexahydro-2H-6,9-epiminocyclohepta[c]pyridine-10-carboxamide], the IC50 was < 500 nM.
Regarding `O=C(Nc1ccc(Cl)c(Br)c1)N1[C@H]2CC[C@@H]1c1c[nH]c(=O)cc1C2` [Compound 145, (6S,9R)-N-(3-Bromo-4-chlorophenyl)-3-oxo-3,5,6,7,8,9-hexahydro-2H-6.9-epiminocyclohepta[c]pyridine-10-carboxamide], the IC50 is < 500 nM.
On the same count and under the same terms, the value for `O=C(Nc1cc(Cl)c(C(F)(F)F)cc1F)N1[C@H]2CC[C@@H]1c1c[nH]c(=O)c(F)c1C2` [Compound 146, (6S,9R)-N-(5-Chloro-2-fluoro-4-(trifluoromethyl)phenyl)-4-fluoro-3-oxo-3,5,6,7,8,9-hexahydro-2H-6,9-epiminocyclohepta[c]pyridine-10-carboxamide] was < 500 nM; that for `O=C(Nc1cc(Cl)c(C(F)(F)F)cc1F)N1[C@@H]2CC[C@H]1c1c[nH]c(=O)c(F)c1C2` [Compound 147, (6R,9S)-N-(5-Chloro-2-fluoro-4-(trifluoromethyl)phenyl)-4-fluoro-3-oxo-3,5,6,7,8,9-hexahydro-2H-6,9-epiminocyclohepta[c]pyridine-10-carboxamide] was < 500 nM; that for `O=C(Nc1cc(Cl)c(Cl)cc1O)N1[C@H]2CC[C@@H]1c1ccnc(F)c1C2` [Compound 149, (5R,8S)—N-(4,5-Dichloro-2-hydroxyphenyl)-1-fluoro-6,7,8,9-tetrahydro-5H-5,8-epiminocyclohepta[c]pyridine-10-carboxamide] was < 500 nM.
Regarding `Cn1cc2c(cc1=O)C[C@@H]1CC[C@H]2N1C(=O)Nc1ccc(Cl)c(Cl)c1` [Compound 150, (6S,9R)—N-(3,4-Dichlorophenyl)-2-methyl-3-oxo-3,5,6,7,8,9-hexahydro-2H-6,9-epiminocyclohepta[c]pyridine-10-carboxamide], the IC50 under setting [1] is 500 to 5000 nM.
With `N#Cc1cc(NC(=O)N2[C@H]3CC[C@@H]2c2ccnc(F)c2C3)ccc1C(F)(F)F` [Compound 151, (5R,8S)-N-(3-cyano-4-(trifluoromethyl)phenyl)-1-fluoro-6,7,8,9-tetrahydro-5H-5,8-epiminocyclohepta[c]pyridine-10-carboxamide], the IC50 was < 500 nM.
With `O=C(Nc1ccc(C(F)(F)F)c(Br)c1)N1[C@H]2CC[C@@H]1c1ccnc(F)c1C2` [Compound 153, (5R,8S)-N-(3-Bromo-4-(trifluoromethyl)phenyl)-1-fluoro-6,7,8,9-tetrahydro-5H-5,8-epiminocyclohepta[c]pyridine-10-carboxamide], the half-inhibitory concentration (IC50) is < 500 nM.
For the molecule `C=CC(=O)Nc1ccc(NC(=O)N2[C@H]3CC[C@@H]2c2ccnc(F)c2C3)cc1Cl` [Compound 179, (5R,8S)-N-(4-Acrylamido-3-chlorophenyl)-1-fluoro-6,7,8,9-tetrahydro-5H-5,8-epiminocyclohepta[c]pyridine-10-carboxamide], the IC50 was in the range of 500 to 5000 nM.
Still for that read-out and setting: the value for `O=C(Nc1cc(Br)c(C(F)(F)F)cc1F)N1[C@H]2CC[C@@H]1c1ccnc(F)c1C2` [Compound 180, (5R,8S)-N-(5-Bromo-2-fluoro-4-(trifluoromethyl)phenyl)-1-fluoro-6,7,8,9-tetrahydro-5H-5,8-epiminocyclohepta[c]pyridine-10-carboxamide] was < 500 nM.
